This passage reports IC50 and melting point results from patent publication US8188078B2 (Sanofi-Aventis, priority 2007, dated 2012).

One data set has as its target RON (Homo sapiens, UniProt Q04912). Put plainly: Test B: HTRF RON test in 96-well format. The format is biochemical. The procedure, abridged: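 RON 5 nM pre-incubated 30 min at RT with compound (0.17 nM–10 μM final, 3% DMSO) in MOPS 10 mM pH 7, DTT, Tween 20. Reaction with biotinylated poly-(GAT) 1 μg/ml, ATP 10 μM, MgCl2 5 mM, 30 min RT. Eu-anti-pTyr/streptavidin-XL665 HTRF, 665/620 ratio gives % inhibition, IC50.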
(Time-resolved FRET reads energy transfer from a long-lived donor to a nearby acceptor.)

The target in the next data set is T1, MET (Homo sapiens, UniProt P08581).
T1 construct: endogenous in cells; host or cells: MKN45 cells
T1 sequence (P08581 25-1390): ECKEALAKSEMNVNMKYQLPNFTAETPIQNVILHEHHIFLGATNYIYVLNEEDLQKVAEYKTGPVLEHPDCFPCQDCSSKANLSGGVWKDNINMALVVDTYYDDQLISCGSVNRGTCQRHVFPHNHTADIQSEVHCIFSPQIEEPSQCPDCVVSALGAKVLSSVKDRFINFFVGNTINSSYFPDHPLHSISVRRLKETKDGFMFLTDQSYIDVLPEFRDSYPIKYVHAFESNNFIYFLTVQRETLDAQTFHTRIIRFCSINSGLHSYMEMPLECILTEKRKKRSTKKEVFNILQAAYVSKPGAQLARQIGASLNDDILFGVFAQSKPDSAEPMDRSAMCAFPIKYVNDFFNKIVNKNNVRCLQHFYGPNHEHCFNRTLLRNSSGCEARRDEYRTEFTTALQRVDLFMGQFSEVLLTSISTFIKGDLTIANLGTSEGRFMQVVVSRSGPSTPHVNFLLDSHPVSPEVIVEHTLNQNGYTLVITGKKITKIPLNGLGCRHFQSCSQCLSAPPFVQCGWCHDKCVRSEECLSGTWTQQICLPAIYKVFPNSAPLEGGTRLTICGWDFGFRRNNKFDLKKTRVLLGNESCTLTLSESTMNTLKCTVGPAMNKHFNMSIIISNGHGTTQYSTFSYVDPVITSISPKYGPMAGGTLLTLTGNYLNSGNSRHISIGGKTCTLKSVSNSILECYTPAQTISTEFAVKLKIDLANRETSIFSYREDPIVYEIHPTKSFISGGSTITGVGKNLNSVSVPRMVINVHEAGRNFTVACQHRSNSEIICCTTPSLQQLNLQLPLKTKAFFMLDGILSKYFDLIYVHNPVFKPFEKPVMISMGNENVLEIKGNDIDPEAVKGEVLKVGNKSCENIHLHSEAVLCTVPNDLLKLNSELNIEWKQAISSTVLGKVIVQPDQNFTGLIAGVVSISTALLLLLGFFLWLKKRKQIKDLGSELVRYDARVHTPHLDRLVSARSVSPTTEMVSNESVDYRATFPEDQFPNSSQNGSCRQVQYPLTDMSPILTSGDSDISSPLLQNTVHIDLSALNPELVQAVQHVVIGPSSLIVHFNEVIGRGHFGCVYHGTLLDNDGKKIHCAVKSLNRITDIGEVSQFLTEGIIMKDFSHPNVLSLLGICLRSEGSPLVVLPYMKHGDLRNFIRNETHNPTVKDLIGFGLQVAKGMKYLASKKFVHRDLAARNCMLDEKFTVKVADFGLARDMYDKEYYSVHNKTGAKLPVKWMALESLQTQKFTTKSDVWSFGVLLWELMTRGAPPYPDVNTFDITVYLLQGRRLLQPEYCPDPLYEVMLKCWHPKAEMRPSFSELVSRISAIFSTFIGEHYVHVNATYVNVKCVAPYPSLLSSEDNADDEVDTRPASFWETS
Put plainly: Test C: inhibition of the autophosphorylation of MET, ELISA technique (pppY1230, 1234, 1235), MKN45 cells. The data set is classed as cell-based. The procedure, abridged:
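MKN45 cells adhered 24 h, then treated 1 h with compound at 6 concentrations in duplicate, final range 10000 to 30 nM. Lysates assayed by phospho-MET (pY1230/1234/1235) sandwich ELISA with HRP chromogen read at 450 nm.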
(In an ELISA, binding on a coated surface is turned into a signal by an enzyme label.)

The test system of a further data set is MKN45 cells. Put plainly: Test D: cellular proliferation by 14C-thymidine pulse, MKN45 cells. The format is cell-based. The following applies: cell line not stated (HCT116 or MKN45). In a few lines:
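MKN45 cells (7500/well, RPMI + 10% foetal calf serum) treated with 10 concentrations, 10000 to 0.3 nM in 3-fold steps, duplicate. 14C-thymidine (0.1 μCi/well) added at 72 h; incorporation counted after 24 h pulse, 96 h total treatment.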

[1] abbreviates: Homo sapiens, MKN-45, cellular proliferation by 14C-thymidine pulse.

Sequence of RON (Q04912 25-1400): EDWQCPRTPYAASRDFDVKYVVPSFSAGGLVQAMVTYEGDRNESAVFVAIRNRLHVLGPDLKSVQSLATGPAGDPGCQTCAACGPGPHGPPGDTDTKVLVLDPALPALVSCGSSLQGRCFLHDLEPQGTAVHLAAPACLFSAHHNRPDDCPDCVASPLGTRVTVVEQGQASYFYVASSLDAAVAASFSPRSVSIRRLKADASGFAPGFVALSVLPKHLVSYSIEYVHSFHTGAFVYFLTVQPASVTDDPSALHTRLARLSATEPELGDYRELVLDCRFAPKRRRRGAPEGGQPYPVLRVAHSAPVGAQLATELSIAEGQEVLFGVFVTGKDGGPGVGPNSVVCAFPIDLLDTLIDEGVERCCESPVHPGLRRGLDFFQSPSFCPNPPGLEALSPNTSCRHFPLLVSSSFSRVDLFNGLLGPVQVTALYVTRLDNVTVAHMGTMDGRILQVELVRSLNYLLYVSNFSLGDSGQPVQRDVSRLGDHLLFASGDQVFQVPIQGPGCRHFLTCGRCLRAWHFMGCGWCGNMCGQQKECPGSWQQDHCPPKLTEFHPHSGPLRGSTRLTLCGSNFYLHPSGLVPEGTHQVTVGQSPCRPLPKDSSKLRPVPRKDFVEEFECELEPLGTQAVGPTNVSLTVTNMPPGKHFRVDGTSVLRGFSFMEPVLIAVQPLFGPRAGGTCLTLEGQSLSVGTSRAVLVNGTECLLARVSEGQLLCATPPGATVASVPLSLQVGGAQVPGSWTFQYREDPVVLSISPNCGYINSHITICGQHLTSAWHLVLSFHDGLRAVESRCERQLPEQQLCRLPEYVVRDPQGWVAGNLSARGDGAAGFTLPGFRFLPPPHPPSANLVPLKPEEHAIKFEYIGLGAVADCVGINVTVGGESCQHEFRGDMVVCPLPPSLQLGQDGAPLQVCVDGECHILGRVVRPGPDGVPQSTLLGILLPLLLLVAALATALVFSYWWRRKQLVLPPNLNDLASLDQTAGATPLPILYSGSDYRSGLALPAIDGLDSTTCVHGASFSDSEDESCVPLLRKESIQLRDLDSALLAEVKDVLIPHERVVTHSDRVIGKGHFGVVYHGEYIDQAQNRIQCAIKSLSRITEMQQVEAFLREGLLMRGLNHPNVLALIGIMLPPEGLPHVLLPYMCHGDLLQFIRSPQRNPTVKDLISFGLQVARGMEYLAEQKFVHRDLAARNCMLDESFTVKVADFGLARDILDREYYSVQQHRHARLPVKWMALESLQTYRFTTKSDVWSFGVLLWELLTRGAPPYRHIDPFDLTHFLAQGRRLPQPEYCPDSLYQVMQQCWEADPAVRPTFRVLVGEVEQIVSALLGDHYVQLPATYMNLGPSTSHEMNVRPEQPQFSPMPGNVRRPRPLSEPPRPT

For the molecule `CC(Oc1cc2sc(NC(=O)NCCN3CCN(C)CC3)nc2cc1F)c1c(Cl)ccc(F)c1Cl` (single isomer, unassigned) [Example 76, 1-{6-[(1R*)-1-(2,6-dichloro-3-fluorophenyl)ethoxy]-5-fluoro-1,3-benzothiazol-2-yl}-3-[2-(4-methylpiperazin-1-yl)ethyl]urea], the 50% inhibitory concentration (IC50) against RON, on MET and in the data set on MKN45 cells (setting [1]) was under 500 nM in each case.
Regarding `CC(Oc1cc2sc(NC(=O)NCCN3CCN(C)CC3)nc2cc1F)c1c(Cl)ccc(F)c1Cl` (single isomer, unassigned) [Example 77, 1-{6-[(1S*)-1-(2,6-dichloro-3-fluorophenyl)ethoxy]-5-fluoro-1,3-benzothiazol-2-yl}-3-[2-(4-methylpiperazin-1-yl)ethyl]urea], the IC50 on RON, against MET and in the data set on MKN45 cells (cellular proliferation by 14C-thymidine pulse) was 500 to 10000 nM throughout.
Consider `CC(Oc1cc2sc(NC(=O)NCCN3CCCC3)nc2cc1F)c1c(Cl)ccc(F)c1Cl` (single isomer, unassigned) [Example 85, 1-{6-[(1R*)-1-(2,6-dichloro-3-fluorophenyl)ethoxy]-5-fluoro-1,3-benzothiazol-2-yl}-3-[2-(pyrrolidin-1-yl)ethyl]urea], for which the 50% inhibitory concentration (IC50) at RON, on MET and in the data set on MKN45 cells (setting [1]) was under 500 nM throughout.
Consider `CC(Oc1cc2sc(NC(=O)NCCN)nc2cc1F)c1c(Cl)ccc(F)c1Cl` (single isomer, unassigned) [Example 89, 1-(2-aminoethyl)-3-{6-[(1R*)-1-(2,6-dichloro-3-fluorophenyl)ethoxy]-5-fluoro-1,3-benzothiazol-2-yl}urea], for which the half-inhibitory concentration (IC50) against RON is 500 to 10000 nM; against MET, under 500 nM; in the data set with MKN45 cells (setting [1]) it was 500 to 10000 nM.
On to `CC(Oc1cc2[nH]c(NC(=O)NCCN3CCOCC3)nc2cc1F)c1c(Cl)ccc(F)c1Cl` (stereo not shown) [Example 6, 1-{6-[1-(2,6-dichloro-3-fluorophenyl)ethoxy]-5-fluoro-1H-benzimidazol-2-yl}-3-(2-morpholin-4-ylethyl)urea], for which the melting point was in the range of 190 to 192 °C. At RON, this molecule showed an IC50 of under 500 nM. The same molecule returned a half-inhibitory concentration (IC50) at MET of under 500 nM. In addition, in the data set on MKN45 cells (setting [1]), the IC50 lay within 500 to 10000 nM.
`O=C(Nc1nc2ccc(OCc3c(Cl)cccc3Cl)cc2[nH]1)C1CC1` [Example 7, N-{6-[(2,6-dichlorobenzyl)oxy]-1H-benzimidazol-2-yl}cyclopropane carboxamide] returned a melting point of 133 to 135 °C. Besides, the IC50 against RON lay within 500 to 10000 nM. Further, on MET, the concentration for half-maximal inhibition (IC50) lay in the range of 500 to 10000 nM. In the data set on MKN45 cells (setting [1]), the 50% inhibitory concentration (IC50) is under 500 nM.
Molecule `CC(Oc1cc2sc(NC(=O)NCCN3CCN(C)CC3)nc2cc1F)c1c(Cl)ccc(F)c1Cl` (stereo not shown) [Example 75, 1-{6-[1-(2,6-dichloro-3-fluorophenyl)ethoxy]-5-fluoro-1,3-benzothiazol-2-yl}-3-[2-(4-methylpiperazin-1-yl)ethyl]urea] had a melting point of 131 to 134 °C. At RON, this molecule gave a 50% inhibitory concentration (IC50) of under 500 nM. At MET, this molecule registered a concentration for half-maximal inhibition (IC50) of under 500 nM. Also, in the data set with MKN45 cells (setting [1]), the IC50 was under 500 nM.
For the molecule `CC(Oc1cc2sc(NC(=O)NCCCN3CCCC3=O)nc2cc1F)c1c(Cl)ccc(F)c1Cl` (stereo not shown) [Example 78, 1-{6-[1-(2,6-dichloro-3-fluorophenyl)ethoxy]-5-fluoro-1,3-benzothiazol-2-yl}-3-[3-(2-oxopyrrolidin-1-yl)propyl]urea], the melting point lay within 191 to 195 °C. This molecule also showed an IC50 against RON of under 500 nM. The molecule further showed an IC50 against MET of under 500 nM. The molecule further had an IC50 in the data set with MKN45 cells (setting [1]) of 500 to 10000 nM.
As for `CC(Oc1cc2sc(NC(=O)NCCC3CCCN3C)nc2cc1F)c1c(Cl)ccc(F)c1Cl` (stereo not shown) [Example 79, 1-{6-[1-(2,6-dichloro-3-fluorophenyl)ethoxy]-5-fluoro-1,3-benzothiazol-2-yl}-3-[2-(1-methylpyrrolidin-2-yl)ethyl]urea], the melting point lay within 78 to 89 °C. Further, at RON, the IC50 was under 500 nM. At MET, the half-maximal inhibitory concentration (IC50) was under 500 nM. Further, the IC50 in the data set on MKN45 cells (setting [1]) is 500 to 10000 nM.
For the molecule `COCCNC(=O)Nc1nc2cc(F)c(OC(C)c3c(Cl)ccc(F)c3Cl)cc2s1` (stereo not shown) [Example 81, 1-{6-[1-(2,6-dichloro-3-fluorophenyl)ethoxy]-5-fluoro-1,3-benzothiazol-2-yl}-3-(2-methoxyethyl)urea], the melting point fell in the range of 176 to 179 °C. Besides, the IC50 against RON is under 500 nM. In addition, the IC50 on MET was under 500 nM. The molecule also came in with an IC50 in the data set on MKN45 cells (setting [1]) of 500 to 10000 nM.
Molecule `CCN(CC)CCNC(=O)Nc1nc2ccc(OC(C)c3c(Cl)ccc(F)c3Cl)cc2s1` (stereo not shown) [Example 82, 1-{6-[1-(2,6-dichloro-3-fluorophenyl)ethoxy]-1,3-benzothiazol-2-yl}-3-[2-(diethylamino)ethyl]urea] yielded a melting point of 74 to 83 °C. The half-inhibitory concentration (IC50) against RON lay within 500 to 10000 nM. Also, the concentration for half-maximal inhibition (IC50) on MET is under 500 nM. Also, the IC50 in the data set with MKN45 cells (setting [1]) lay within 500 to 10000 nM.
For the molecule `CCN(CC)CCCNC(=O)Nc1nc2ccc(OC(C)c3c(Cl)ccc(F)c3Cl)cc2s1` (stereo not shown) [Example 83, 1-{6-[1-(2,6-dichloro-3-fluorophenyl)ethoxy]-1,3-benzothiazol-2-yl}-3-[3-(diethylamino)propyl]urea], the IC50 on RON was 500 to 10000 nM; against MET, under 500 nM; with MKN45 cells (setting [1]) it was 500 to 10000 nM.
In turn, `CC(Oc1cc2sc(NC(=O)NCCN3CCCC3)nc2cc1F)c1c(Cl)ccc(F)c1Cl` (stereo not shown) [Example 84, 1-{6-[1-(2,6-dichloro-3-fluorophenyl)ethoxy]-5-fluoro-1,3-benzothiazol-2-yl}-3-[2-(pyrrolidin-1-yl)ethyl]urea] displayed a melting point of 178 to 190 °C. Also, the IC50 against RON was in the range of 500 to 10000 nM. Besides, the IC50 on MET was under 500 nM. Also, the IC50 in the data set on MKN45 cells (setting [1]) was under 500 nM.
As to `CC(Oc1cc2sc(NC(=O)NCCN)nc2cc1F)c1c(Cl)ccc(F)c1Cl` (stereo not shown) [Example 88, 1-(2-aminoethyl)-3-{6-[1-(2,6-dichloro-3-fluorophenyl)ethoxy]-5-fluoro-1,3-benzothiazol-2-yl}urea], the melting point is 178 °C. For the same molecule, the 50% inhibitory concentration (IC50) at RON was 500 to 10000 nM. The molecule also had an IC50 at MET of under 500 nM. The molecule also yielded an IC50 with MKN45 cells (setting [1]) of 500 to 10000 nM.
The molecule `CC(Oc1cc2sc(NC(=O)NCCN(C)Cc3ccccc3)nc2cc1F)c1c(Cl)ccc(F)c1Cl` (stereo not shown) [Example 94, 1-{2-[benzyl(methyl)amino]ethyl}-3-{6-[1-(2,6-dichloro-3-fluorophenyl)ethoxy]-5-fluoro-1,3-benzothiazol-2-yl}urea] came in with a melting point of 142 to 146 °C. Besides, the half-maximal inhibitory concentration (IC50) at RON lay within 500 to 10000 nM. In addition, on MET, the IC50 is 500 to 10000 nM. Further, in the data set with MKN45 cells (setting [1]), the IC50 was in the range of 500 to 10000 nM.
As for `CC(Oc1cc2sc(NC(=O)NCCN(C)C(=O)OC(C)(C)C)nc2cc1F)c1c(Cl)ccc(F)c1Cl` (stereo not shown) [Example 95], the IC50 against RON, against MET and in the data set with MKN45 cells (setting [1]) was 500 to 10000 nM in each case.
In turn, `CNCCNC(=O)Nc1nc2cc(F)c(OC(C)c3c(Cl)ccc(F)c3Cl)cc2s1` (stereo not shown) [Example 96, 1-{6-[1-(2,6-dichloro-3-fluorophenyl)ethoxy]-5-fluoro-1,3-benzothiazol-2-yl}-3-[2-(methylamino)ethyl]urea] yielded a melting point of 173 to 188 °C. On RON, this molecule gave a half-inhibitory concentration (IC50) of under 500 nM. In addition, the IC50 on MET is under 500 nM. The molecule further gave an IC50 in the data set with MKN45 cells (setting [1]) of 500 to 10000 nM.
As for `CC(Oc1cc2sc(NC(=O)NCCOCc3ccccc3)nc2cc1F)c1c(Cl)ccc(F)c1Cl` (stereo not shown) [Example 97, 1-[2-(benzyloxy)ethyl]-3-{6-[1-(2,6-dichloro-3-fluorophenyl)ethoxy]-5-fluoro-1,3-benzothiazol-2-yl}urea], the melting point was 170 °C. The IC50 on RON fell in the range of 500 to 10000 nM. Also, the half-inhibitory concentration (IC50) against MET is 500 to 10000 nM. Besides, the half-maximal inhibitory concentration (IC50) in the data set on MKN45 cells (setting [1]) lay in the range of 500 to 10000 nM.
`CC(Oc1cc2sc(NC(=O)NCCO)nc2cc1F)c1c(Cl)ccc(F)c1Cl` (stereo not shown) [Example 98, 1-{6-[1-(2,6-dichloro-3-fluorophenyl)ethoxy]-5-fluoro-1,3-benzothiazol-2-yl}-3-(2-hydroxyethyl)urea]: the melting point was 198 °C. The 50% inhibitory concentration (IC50) at RON was under 500 nM. Moreover, at MET, the half-inhibitory concentration (IC50) is under 500 nM. Further, the half-maximal inhibitory concentration (IC50) with MKN45 cells (setting [1]) fell in the range of 500 to 10000 nM.

As a reminder, the IC50 is the concentration needed to halve the response being measured. The melting point is the temperature of the solid-liquid transition.
